Experimental data reported in US12516058B2, “Small-molecule compounds for controlling endosomal toll-like receptors and therapeutic agent for autoimmune diseases using same” (priority 2020, dated 2026).
“Also recorded” adds a separate entry of the source.

Each compound was assayed against T1, TLR9 (Mus musculus, UniProt Q9EQU3) (assay: TNF-α secretion ELISA after TLR9 agonist ODN2395 in RAW 264.7 cells). Settings: SK01 and structural derivatives, inhibitor 1 h, then ODN2395 4 h.
T1 construct: endogenous in cells; host or cells: RAW 264.7
T1 sequence (Q9EQU3 26-1032): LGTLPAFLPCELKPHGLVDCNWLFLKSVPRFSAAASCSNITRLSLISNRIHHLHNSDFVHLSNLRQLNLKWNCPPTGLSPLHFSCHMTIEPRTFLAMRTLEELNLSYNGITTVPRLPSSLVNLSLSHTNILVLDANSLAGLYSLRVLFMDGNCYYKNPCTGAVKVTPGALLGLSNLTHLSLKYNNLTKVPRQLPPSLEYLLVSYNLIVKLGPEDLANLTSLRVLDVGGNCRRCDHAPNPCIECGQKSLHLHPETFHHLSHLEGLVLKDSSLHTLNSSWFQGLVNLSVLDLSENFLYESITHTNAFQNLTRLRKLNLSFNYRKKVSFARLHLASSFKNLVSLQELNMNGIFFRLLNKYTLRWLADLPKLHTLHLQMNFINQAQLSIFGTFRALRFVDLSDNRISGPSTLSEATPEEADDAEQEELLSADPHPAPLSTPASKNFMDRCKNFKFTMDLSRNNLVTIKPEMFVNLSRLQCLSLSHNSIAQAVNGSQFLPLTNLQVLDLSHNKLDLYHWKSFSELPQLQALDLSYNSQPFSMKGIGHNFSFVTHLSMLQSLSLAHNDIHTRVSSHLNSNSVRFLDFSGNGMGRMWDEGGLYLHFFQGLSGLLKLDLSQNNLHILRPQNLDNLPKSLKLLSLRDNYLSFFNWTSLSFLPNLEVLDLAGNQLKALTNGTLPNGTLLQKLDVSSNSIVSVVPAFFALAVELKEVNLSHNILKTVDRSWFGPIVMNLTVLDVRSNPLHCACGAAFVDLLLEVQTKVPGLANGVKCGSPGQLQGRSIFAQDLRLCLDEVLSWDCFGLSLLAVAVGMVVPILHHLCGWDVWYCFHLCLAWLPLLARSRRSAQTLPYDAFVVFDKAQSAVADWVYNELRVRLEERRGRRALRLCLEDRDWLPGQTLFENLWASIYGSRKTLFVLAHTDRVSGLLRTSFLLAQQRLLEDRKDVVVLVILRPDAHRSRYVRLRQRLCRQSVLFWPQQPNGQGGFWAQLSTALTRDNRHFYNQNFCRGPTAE
Assay type: cell-based
Description: In order to determine the inhibitory activities of the test-ligand, RAW 264.7 cells were pretreated with each candidate compound for 1 hour, then treated with Pam3CSK4 (synthetic triacyl lipopeptide; TLR1/2, Invitrogen), FSL-1 (synthetic diacyl lipoprotein, TLR2/6, 100 ng/ml), lipopolysaccharide (LPS, TLR4, Sigma Aldrich), imiquimod (IMQ, TLR7, Invitrogen), and ODN2395 (type C CpG repeat motif DNA oligo(5′-[…]-3), TLR9, Bioneer) ligand for 4 hours, and treated with poly I:C (I:C repeat motif double-stranded RNA, TLR3, Invitrogen) and TL8-506 (TLR8, Invitrogen) showing delayed reactivity for 24 hours. After activation of TLR, the supernatant was diluted in an appropriate ratio so as to measure within the standard dose range, transferred to a pre-coated 96-well assay plate, and then treated with mouse TNF-alpha secretion level in accordance with the manufacturer's instructions using a mouse-TNF-alpha ELISA-kit (Invitrogen).
In order to plot the concentration-dependent LC50 curves, treatment with the SK series ligands at different concentrations up to 200 μM (the highest concentration that could be treated within the level of 0.5% DMSO) was performed. Then, cell viability and toxicity response upon treatment with ligands were analyzed by MTT as described in Examples 1-3. Cell viability in each plot was normalized from negative control (100%; no treatment) to positive control (highest concentration of test-ligand), and LC50 was determined by non-linear regression (Graph Pad Prism 7.0). In order to plot the concentration-dependent IC50 curves, pre-treatment with the SK series ligands was performed at different concentrations up to 50 μM (twice the initial concentration). Cell responses mediated by TLR7 and TLR9 (levels of TNF-α secretion) were analyzed by ELISA as described in Examples 1-4. The cytokine level in each plot was normalized from negative control (non-treated) to positive control (treatment with ligand), and IC50 was determined by non-linear regression (Graph Pad Prism 7.0).
In order to select potential inhibitory molecules against TLR3/TLR7/TLR8/TLR9 activation, first, MTT (3-(4,5-dimethylthiazol-2-yl)-2,5-diphenyltetrazolium bromide) cell viability assay (FIG. 7) was performed upon treatment with a set of ligands from SK21 to SK82 at a concentration of 20 μM and the inhibitory activity thereof was evaluated by an ELISA assay to monitor the level of TNF-α secretion in RAW 264.7 cells. The experimental ligands from SK21 to SK82 were administered at 0.5 μM or 2 μM to the RAW 264.7 cells and stimulated with Imiquimod (TLR7, 1 μg/ml) and OND2395 (TLR9, 0.5 μM).
With `Cc1c(C)n(CCN(C)C)c2nc3c(c(N)c12)CCCCC3` [SK01, 1-(2-(dimethylamino)ethyl)-2,3-dimethyl-1,5,6,7,8,9-hexahydrocyclohepta[b]pyrrolo[3,2-e]pyridin-4-amine] the “inhibitory activity against TLR9 activation (TNF-α secretion)” value was “inhibitory ability for TLR7/TLR9 activation was verified; also recorded: specifically inhibit”.
With `Cc1c(C)n(CCCN(C)C)c2nc3c(c(N)c12)CCCCC3` [SK16, 1-(3-(dimethylamino)propyl)-2,3-dimethyl-1,5,6,7,8,9-hexahydrocyclohepta[b]pyrrolo[3,2-e]pyridin-4-amine] the “inhibitory activity against TLR9 activation (TNF-α secretion)” value was “potent inhibitor; also recorded: best inhibitory activity among the structural analogues of SK01; also recorded: specifically inhibit”.

Same assay, conditions: SK21 to SK82 at 0.5 μM or 2 μM, ODN2395 0.5 μM
For `Cc1cc2c(N)c3c(nc2n1CCCN(C)C)CCCCCC3` [SK41, 1-(3-(dimethylamino)propyl)-2-methyl-5,6,7,8,9,10-hexahydro-1H-cycloocta[b]pyrrolo[3,2-e]pyridin-4-amine], the “inhibitory activity against TLR9 (level of TNF-α secretion)” value was “significant inhibitory activity; also recorded: significantly reduced”.
In the case of `COc1ccc2c(c1)c1c(N)c3c(nc1n2CCCN(C)C)CCCC3` [SK50, 6-(3-(dimethylamino)propyl)-9-methoxy-2,3,4,6-tetrahydro-1H-indolo[2,3-b]quinolin-11-amine], the “inhibitory activity against TLR9 (level of TNF-α secretion)” value is reported as “significant inhibitory activity; also recorded: significantly reduced”.
With `Cc1ccc2c(c1)c1c(N)c3c(nc1n2CCCN(C)C)CCCC3` [SK58, 6-(3-(dimethylamino)propyl)-9-methyl-2,3,4,6-tetrahydro-1H-indolo[2,3-b]quinolin-11-amine] the “inhibitory activity against TLR9 (level of TNF-α secretion)” value was “significant inhibitory activity; also recorded: significantly reduced”.
`COC(=O)c1ccc2c(c1)c1c(N)c3c(nc1n2CCCN(C)C)CCCC3` [SK64, Methyl 11-amino-6-(3-(dimethylamino)propyl)-2,3,4,6-tetrahydro-1H-indolo[2,3-b]quinolin-9-carboxylate] was tested, and the “inhibitory activity against TLR9 (level of TNF-α secretion)” value was “significant inhibitory activity; also recorded: significantly reduced”.
